Reference: patent US9206194B2, “Halichondrin B analogs” (Eisai R&D Management Co., Ltd., priority 2008, dated 2015)

Experiments:
[1] = tested on: MES-SA uterine sarcoma cells; assay: Cell growth inhibition assay (methylene blue-based microculture), MES-SA; parameters: species or system human; details: MDR negative parental cell line, 4 days incubation, compound in the crystalline form described
Description: (§1) The anti-cancer activity of the compounds described above, in the crystalline forms described, was determined using cell growth inhibition assays as described in Liu, J. et al. Anticancer Research, 27:1509-1511 (2007). The activity data in terms of IC50 nM is described below in Table 9. MES-SA and MES-SA/Dx5-Rx1 uterine sarcoma, were obtained from the American Type Culture Collection and grown in the recommended conditions.
(§2) Cell Growth Inhibition Assays. Cells were seeded at 7.5×10^3 cells/well in 96-well plates in the recommended medium supplemented with 10% FBS and penicillin, streptomycin and L-glutamine. […] The cell growth was determined using modifications (see Finlay G. J., et al. “A semiautomated microculture method for investigating growth inhibitory effects of cytotoxic compounds on exponentially growing carcinoma cells.” Anal Biochem 139: 272-277, 1984) of a methylene blue-based microculture assay (See Towle M. J., et al. “In vitro and in vivo anticancer activities of synthetic macrocyclic ketone analogues of halichondrin B.” Cancer Res 61: 1013-1021, 2001). […] The plates were read at A600-A405.
(§3) Susceptibility of Compound to P-Glycoprotein-Mediated Multidrug Resistance (MDR). […] Both cell lines were seeded at 7.5×10^3 cells/well in McCoy's 5A supplemented with 10% FBS and penicillin, streptomycin and L-glutamine and cell growth was measured as above. […]

[2] = tested on: P-Glycoprotein-mediated MDR, Dx5-Rx1 versus MES-SA cells; assay: Susceptibility of compound to P-glycoprotein-mediated multidrug resistance (fold resistance); assay type: cell-based, human; details: fold resistance: ratio of the IC50 values in resistant and parental cell lines
Description: Susceptibility of Compound to P-Glycoprotein-Mediated Multidrug Resistance (MDR). A pair of human uterine sarcoma cell lines was used: MES-SA, the MDR negative parental cell line, and Dx5-Rx1, a cell line derived from MES-SA after long term of exposure to doxorubicin. This subline expresses P-Glycoprotein at high levels. Both cell lines were seeded at 7.5×10^3 cells/well in McCoy's 5A supplemented with 10% FBS and penicillin, streptomycin and L-glutamine and cell growth was measured as above. The ratio of the IC50 values obtained in the parental and resistant cell lines was termed fold resistance and provided an indication of compound susceptibility to P-glycoprotein-mediated MDR against the two cell lines were compared with each other.

[3] = tested on: MES-SA/Dx5-Rx1 uterine sarcoma cells (expresses P-Glycoprotein at high levels); assay: Cell growth inhibition assay (methylene blue-based microculture), Dx5-Rx1; parameters: species or system human; details: Dx5-Rx1, doxorubicin-selected P-glycoprotein expressing subline; 4 days incubation; compound in the crystalline form described
Description: as §1, §2, §3

SMILES	IC50 [1] [nM]	Ratio of DxR-Rx1/MES-SA [2]	IC50 [3] [nM]
C=C1C[C@@H]2CC[C@@]34C[C@H]5O[C@H]6[C@@H](O3)[C@H]3O[C@H](CC[C@@H]3O[C@H]6[C@H]5O4)CC(=O)C[C@@H]3[C@@H](OC)[C@@H](C[C@H](O)CO)O[C@H]3C[C@H]3O[C@@H](CC[C@@H]1O2)C[C@@H](C)C3=C [ER-076349 monohydrate]	0.03	217	6.5
C=C1C[C@@H]2CC[C@@]34C[C@H]5O[C@H]6[C@@H](O3)[C@H]3O[C@H](CC[C@@H]3O[C@H]6[C@H]5O4)CC(=O)C[C@@H]3[C@@H](OC)[C@@H](C[C@H](O)CN)O[C@H]3C[C@H]3O[C@H](CC[C@@H]1O2)C[C@@H](C)C3=C [ER-820057 (epi-C23 amine)]	3.3	303	1000
